Source: patent publication US20100168084A1, “Therapeutic compounds and related methods of use” (priority 2008, published 2010)
Read-outs that look alike come from different tables or passages of the source.

Biological target: T1, sirtuin protein (Homo sapiens, UniProt Q96EB6)
T1 sequence (Q96EB6 2-747 limits assumed): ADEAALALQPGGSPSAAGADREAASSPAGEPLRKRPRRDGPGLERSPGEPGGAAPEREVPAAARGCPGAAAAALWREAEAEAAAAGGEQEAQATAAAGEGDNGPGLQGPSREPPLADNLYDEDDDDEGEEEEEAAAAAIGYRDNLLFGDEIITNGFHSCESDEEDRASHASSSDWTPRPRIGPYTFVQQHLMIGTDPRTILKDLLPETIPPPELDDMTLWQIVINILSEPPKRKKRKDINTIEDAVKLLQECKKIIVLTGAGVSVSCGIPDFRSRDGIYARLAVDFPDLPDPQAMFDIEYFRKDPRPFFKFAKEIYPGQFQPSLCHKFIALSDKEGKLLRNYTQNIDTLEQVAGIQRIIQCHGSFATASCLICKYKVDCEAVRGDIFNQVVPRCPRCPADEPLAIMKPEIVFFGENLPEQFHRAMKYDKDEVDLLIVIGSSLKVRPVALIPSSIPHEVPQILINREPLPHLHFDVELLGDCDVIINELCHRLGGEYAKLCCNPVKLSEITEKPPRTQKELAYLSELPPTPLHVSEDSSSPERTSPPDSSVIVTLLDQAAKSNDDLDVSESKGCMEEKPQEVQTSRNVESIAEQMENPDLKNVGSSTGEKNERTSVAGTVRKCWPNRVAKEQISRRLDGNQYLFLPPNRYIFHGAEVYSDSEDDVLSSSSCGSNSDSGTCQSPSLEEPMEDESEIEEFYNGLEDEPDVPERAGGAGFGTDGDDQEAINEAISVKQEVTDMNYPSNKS
Experiment: MS assay (IC50 MS ASSAY / ED50 MS / FOLD ACTIVATION MS)
Format: biochemical
Design: scale not given here

[1] = Table 4, class symbols A′, A, B, D, NA, legend not given
[2] = class symbols (A′, A, B, D, NA), no legend given

COc1cc(C(=O)Nc2ccccc2-c2nc3cccnc3[nH]2)ccc1CN1CCOCC1 [Compound 537]
A′: ED50 MS ASSAY | ED50 MS ASSAY (Table 4) | ED50 MS ASSAY (Table 4, class symbols) | ED50 MS ASSAY [1] | ED50 MS ASSAY [2]

COc1cc(C(=O)Nc2ccccc2-c2nc3cccnc3[nH]2)ccc1CN1CCN(C)CC1 [Compound 539]
A′: ED50 MS ASSAY | ED50 MS ASSAY (Table 4) | ED50 MS ASSAY (Table 4, class symbols) | ED50 MS ASSAY [1] | ED50 MS ASSAY [2]

O=C(Nc1ccccc1-c1cn2c(CN3CCNCC3)csc2n1)c1cnccn1 [Compound 543]
A′: ED50 MS ASSAY | ED50 MS ASSAY (Table 4) | ED50 MS ASSAY (Table 4, class symbols) | ED50 MS ASSAY [1] | ED50 MS ASSAY [2]

O=C(Nc1ccccc1-c1cn2c(n1)CCCC2)c1ccc2ccccc2n1 [Compound 547]
A′: ED50 MS ASSAY | ED50 MS ASSAY (Table 4) | ED50 MS ASSAY (Table 4, class symbols) | ED50 MS ASSAY [1] | ED50 MS ASSAY [2]

O=C(Nc1ccccc1-c1cn2c(n1)CCCC2)c1cnc2ccccc2n1 [Compound 548]
A′: ED50 MS ASSAY | ED50 MS ASSAY (Table 4) | ED50 MS ASSAY (Table 4, class symbols) | ED50 MS ASSAY [1] | ED50 MS ASSAY [2]

O=C(Nc1ccccc1-c1nc2ccccc2[nH]1)c1ccc2ccccc2n1 [Compound 556]
A′: ED50 MS ASSAY | ED50 MS ASSAY (Table 4) | ED50 MS ASSAY (Table 4, class symbols) | ED50 MS ASSAY [1] | ED50 MS ASSAY [2]

COc1cc(C(=O)Nc2ccccc2-c2nc3ccccc3[nH]2)ccc1CN1CCNCC1 [Compound 558]
A′: ED50 MS ASSAY | ED50 MS ASSAY (Table 4) | ED50 MS ASSAY (Table 4, class symbols) | ED50 MS ASSAY [1] | ED50 MS ASSAY [2]

COc1ccc(C(=O)Nc2ccc(-c3nc4ccncc4o3)s2)c(OC)c1 [Compound 561]
A′: ED50 MS ASSAY | ED50 MS ASSAY (Table 4) | ED50 MS ASSAY (Table 4, class symbols) | ED50 MS ASSAY [1] | ED50 MS ASSAY [2]

COc1cc(OC)cc(C(=O)Nc2ccc(-c3nc4ccncc4o3)s2)c1 [Compound 562]
A′: ED50 MS ASSAY | ED50 MS ASSAY (Table 4) | ED50 MS ASSAY (Table 4, class symbols) | ED50 MS ASSAY [1] | ED50 MS ASSAY [2]

COc1cc(C(=O)Nc2ccccc2-c2nc3ccccc3[nH]2)ccc1CN1CCCC1 [Compound 587]
A′: ED50 MS ASSAY | ED50 MS ASSAY (Table 4) | ED50 MS ASSAY (Table 4, class symbols) | ED50 MS ASSAY [1] | ED50 MS ASSAY [2]

COc1cc(OC)cc(C(=O)Nc2ccccc2-c2nc3cc(CN4CCNCC4)cnc3s2)c1 [Compound 589]
A′: ED50 MS ASSAY | ED50 MS ASSAY (Table 4) | ED50 MS ASSAY (Table 4, class symbols) | ED50 MS ASSAY [1] | ED50 MS ASSAY [2]

Cc1ccc(C(=O)Nc2ccccc2-c2nc3cc(CN4CCNCC4)cnc3s2)cc1C [Compound 591]
A′: ED50 MS ASSAY | ED50 MS ASSAY (Table 4) | ED50 MS ASSAY (Table 4, class symbols) | ED50 MS ASSAY [1] | ED50 MS ASSAY [2]

N#Cc1cccc(C(=O)Nc2ccccc2-c2nc3cc(CN4CCNCC4)cnc3s2)c1 [Compound 592]
A′: ED50 MS ASSAY | ED50 MS ASSAY (Table 4) | ED50 MS ASSAY (Table 4, class symbols) | ED50 MS ASSAY [1] | ED50 MS ASSAY [2]

CN(C)c1cccc(C(=O)Nc2ccccc2-c2nc3cc(CN4CCNCC4)cnc3s2)c1 [Compound 593]
A′: ED50 MS ASSAY | ED50 MS ASSAY (Table 4) | ED50 MS ASSAY (Table 4, class symbols) | ED50 MS ASSAY [1] | ED50 MS ASSAY [2]

O=C(Nc1ccccc1-c1cn2c(CN3CCOCC3)csc2n1)c1cnc2ccccc2n1 [Compound 617]
A′: ED50 MS ASSAY | ED50 MS ASSAY (Table 4) | ED50 MS ASSAY (Table 4, class symbols) | ED50 MS ASSAY [1] | ED50 MS ASSAY [2]

O=C(Nc1ccccc1-c1cn2c(CN3CCCCC3)csc2n1)c1cnc2ccccc2n1 [Compound 618]
A′: ED50 MS ASSAY | ED50 MS ASSAY (Table 4) | ED50 MS ASSAY (Table 4, class symbols) | ED50 MS ASSAY [1] | ED50 MS ASSAY [2]

O=C(Nc1ccccc1-c1cn2c(CN3CCCC3)csc2n1)c1cnc2ccccc2n1 [Compound 619]
A′: ED50 MS ASSAY | ED50 MS ASSAY (Table 4) | ED50 MS ASSAY (Table 4, class symbols) | ED50 MS ASSAY [1] | ED50 MS ASSAY [2]

COc1cc(C(=O)Nc2ccccc2-c2cn3c(CN4CCCC4)csc3n2)cc(OC)c1OC [Compound 620]
A′: ED50 MS ASSAY | ED50 MS ASSAY (Table 4) | ED50 MS ASSAY (Table 4, class symbols) | ED50 MS ASSAY [1] | ED50 MS ASSAY [2]

O=C(Nc1ncccc1-c1cn2c(CN3CCOCC3)csc2n1)c1cnc2ccccc2n1 [Compound 621]
A′: ED50 MS ASSAY | ED50 MS ASSAY (Table 4) | ED50 MS ASSAY (Table 4, class symbols) | ED50 MS ASSAY [1] | ED50 MS ASSAY [2]

O=C(Nc1ccccc1-c1nc2cc(CN3CCNCC3)cnc2s1)c1cnc2ccccc2n1 [Compound 622]
A′: ED50 MS ASSAY | ED50 MS ASSAY (Table 4) | ED50 MS ASSAY (Table 4, class symbols) | ED50 MS ASSAY [1] | ED50 MS ASSAY [2]

O=C(Nc1ccccc1-c1cn2c(CN3CCNCC3)csc2n1)c1cc2ccccc2o1 [Compound 624]
A′: ED50 MS ASSAY | ED50 MS ASSAY (Table 4) | ED50 MS ASSAY (Table 4, class symbols) | ED50 MS ASSAY [1] | ED50 MS ASSAY [2]

O=C(Nc1ccccc1-c1cn2c(CN3CCNCC3)csc2n1)c1cc(-c2ccccc2)ncn1 [Compound 625]
A′: ED50 MS ASSAY | ED50 MS ASSAY (Table 4) | ED50 MS ASSAY (Table 4, class symbols) | ED50 MS ASSAY [1] | ED50 MS ASSAY [2]

O=C(Nc1ccccc1-c1cn2c(CN3CCN(Cc4ccccc4)CC3=O)csc2n1)c1cnc2ccccc2n1 [Compound 628]
A′: ED50 MS ASSAY | ED50 MS ASSAY (Table 4) | ED50 MS ASSAY (Table 4, class symbols) | ED50 MS ASSAY [1] | ED50 MS ASSAY [2]

COc1cc(C(=O)Nc2ccccc2-c2nc3ncccc3o2)ccc1CN1CCOCC1 [Compound 631]
A′: ED50 MS ASSAY | ED50 MS ASSAY (Table 4) | ED50 MS ASSAY (Table 4, class symbols) | ED50 MS ASSAY [1] | ED50 MS ASSAY [2]

O=C(Nc1ccccc1-c1cn2c(CN3CCNCC3)csc2n1)c1cnc2ccccc2c1 [Compound 645]
A′: ED50 MS ASSAY | ED50 MS ASSAY (Table 4) | ED50 MS ASSAY (Table 4, class symbols) | ED50 MS ASSAY [1] | ED50 MS ASSAY [2]

CN(C)CCOCc1csc2nc(-c3ccccc3NC(=O)c3cnc4ccccc4n3)cn12 [Compound 647]
A′: ED50 MS ASSAY | ED50 MS ASSAY (Table 4) | ED50 MS ASSAY (Table 4, class symbols) | ED50 MS ASSAY [1] | ED50 MS ASSAY [2]

O=C(Nc1ccccc1-c1cn2c(CO)csc2n1)c1cnc2ccccc2n1 [Compound 648]
A′: ED50 MS ASSAY | ED50 MS ASSAY (Table 4) | ED50 MS ASSAY (Table 4, class symbols) | ED50 MS ASSAY [1] | ED50 MS ASSAY [2]

CN1CCN(C(=O)Cc2csc3nc(-c4ccccc4NC(=O)c4cnc5ccccc5n4)cn23)CC1 [Compound 649]
A′: ED50 MS ASSAY | ED50 MS ASSAY (Table 4) | ED50 MS ASSAY (Table 4, class symbols) | ED50 MS ASSAY [1] | ED50 MS ASSAY [2]
